Reference: patent publication US6608082B1, “Treatment of erectile dysfunction using isoquinoline compound melanocortin receptor ligands” (Lion Bioscience AG, priority 1998, dated 2003)
Where two headings read alike, the source gives them in different places.

Experiments:
MCR-1 = molecular target: T1, MCR-1 (Homo sapiens, UniProt Q01726); assay: Melanocortin receptor binding assay, competition with 125I-HP 467, HEK 293 cells expressing hMCR-1; settings: for IC50: read-out: MC-1 IC50; for % Disp. MC-1 10 μM: displacement of 125I-HP 467 at 10 μM isoquinoline compound; for % Disp. of 125I-HP 467 (first of duplicate) / % Disp. of 125I-HP 467 (second of duplicate): 10 μM isoquinoline compound; for % Disp. of 125I-HP 467 (first of duplicate): HEK 293 cells expressing MCR-1, duplicate 1; for % Disp. of 125I-HP 467 (second of duplicate): HEK 293 cells expressing MCR-1, duplicate 2; for effectiveness as MC receptor ligand: binding to MC receptors, Table 1; for specificity for at least one MC receptor over another MC receptor: MCR-1 versus MCR-4 binding
T1 construct: expressed in transfected cells; host or cells: HEK 293
How it was run: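 Intact-cell competition binding, 2.5 hr at 37 °C, in PBS/10% calf serum/1 mM CaCl2; hMCR-4 cells at 4×10^3 per tube, hMCR-1 cells at 2×10^4 per tube. Filtration on BSA/CaCl2-soaked GF/B, cold 50 mM Tris pH 7.4 washes, scintillation count.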

MCR-3 = molecular target: T2, MCR-3 (Homo sapiens, UniProt P41968); assay: Melanocortin receptor binding assay, competition with 125I-HP 467, HEK 293 cells expressing hMCR-3; settings: binding to MCR-3, HEK 293 cells; read-out: MC-3 IC50
T2 construct: expressed in transfected cells; host or cells: HEK 293
Text: All cell culture media and reagents were obtained from GibcoBRL (Gaithersburg Md.), except for COSMIC CALF SERUM (HyClone; Logan Utah). HEK-293 cell lines were transfected with the human MC receptors hMCR-1, hMCR-3, and hMCR-4 (Gantz et al., Biochem. Biophys. Res. Comm. 200:1214-1220 (1994); Gantz et al., J. Biol. Chem. 268:8246-8250 (1993); Gantz et al. J. Biol. Chem. 268:15174-15179 (1993); Haskell-Leuvano et al., Biochem. Biophys. Res. Comm. 204:1137-1142 (1994); each of which is incorporated herein by reference). Vectors for construction of an hMCR-5 expressing cell line were obtained, and a line of HEK 293 cells expressing hMCR-5 was constructed (Gantz, supra, 1994). hMCR-5 has been described previously (Franberg et al., Biochem. Biophys. Res. Commun. 236:489-492 (1997); Chowdhary et al., Cytogenet. Cell Genet. 68:1-2 (1995); Chowdhary et al., Cytogenet. Cell Genet. 68:79-81 (1995), each of which is incorporated herein by reference). HEK 293 cells were maintained in DMEM, 25 mM HEPES, 2 mM glutamine, non-essential amino acids, vitamins, sodium pyruvate, 10% COSMIC CALF SERUM, 100 units/ml penicillin, 100 μg/ml streptomycin and 0.2 mg/ml G418 to maintain selection.
Before assaying, cells were washed once with phosphate buffered saline (“PBS”; without Ca^2+ and Mg^2+), and stripped from the flasks using 0.25% trypsin and 0.5 mM EDTA. Cells were suspended in PBS, 10% COSMIC CALF SERUM and 1 mM CaCl2. Cell suspensions were prepared at a density of 2×10^4 cells/ml for HEK 293 cells expressing hMCR-3, hMCR-4 or hMCR-5, and 1×10^5 cells/ml for HEK 293 cells expressing hMCR-1. Suspensions were placed in a water bath and allowed to warm to 37° C. for 1 hr.
Binding assays were performed in a total volume of 250 μl for HEK 293 cells. Control and test compounds were dissolved in distilled water. ^125I-HP 467 (50,000 dpm) (2000 Ci/mmol) (custom labeled by Amersham; Arlington Heights Ill.) was prepared in 50 mM Tris, pH 7.4, 2 mg/ml BSA, 10 mM CaCl2, 5 mM MgCl2, 2 mM EDTA and added to each tube. To each tube was added 4×10^3 HEK 293 cells expressing hMCR-3, hMCR-4 or hMCR-5, or 2×10^4 cells expressing hMCR-1. Assays were incubated for 2.5 hr at 37° C.
GF/B filter plates were prepared by soaking for at least one hour in 5 mg/ml BSA and 10 mM CaCl2. Assays were filtered using a Brandel 96-well cell harvester (Brandel Inc.; Gaithersburg, Md.). The filters were washed four times with cold 50 mM Tris, pH 7.4, the filter plates were dehydrated for 2 hr and 35 μl of MICROSCINT was added to each well. Filter plates were counted using a Packard Topcount (Packard Instrument Co.) and data analyzed using GraphPad PRISM v2.0 (GraphPad Software Inc.; San Diego Calif.) and Microsoft EXCEL v5.0a (Microsoft Corp.; Redmond Wash.).
To assay isoquinoline compounds, binding assays were performed in duplicate in a 96 well format. HP 467 was prepared in 50 mM Tris, pH 7.4, and ^125I-HP 467 was diluted to give 100,000 dpm per 50 μl. An isoquinoline compound, synthesized as described in Example I, was added to the well in 25 μl aliquots. A 25 μl aliquot of ^125I-HP 467 was added to each well. A 0.2 ml aliquot of suspended cells was added to each well to give the cell numbers indicate above, and the cells were incubated at 37° C. for 2.5 hr. Cells were harvested on GF/B filter plates as described above and counted.
Some of the isoquinoline compounds were further tested for binding to MCR-3 and MCR-5.

IL-10 = assay: Increasing levels of IL-10 in mice (plasma ELISA); type: in vivo; settings: for % IL-10 Induction, IP 30: 30 μg per mouse; for % IL-10 Induction, IP 30 / % IL-10 Induction, IP 100 / % IL-10 Induction, IP 300 / % IL-10 Induction, Oral 600 / % IL-10 Induction, Oral 300: mouse plasma, 90 or 105 minutes; for % IL-10 Induction, IP 100: 100 μg per mouse; for % IL-10 Induction, IP 300 / % IL-10 Induction, Oral 300: 300 μg per mouse; for increase of IL-10: plasma levels in mice; for % IL-10 Induction, Oral 600: 600 μg per mouse
Protocol: Isoquinoline compounds were administered intraperitoneally to mice in doses of 30, 100 or 300 μg/mouse or orally in doses of 300 or 600 μg/mouse. Levels of IL-10 were measured 90 or 105 minutes after administration as indicated. Samples were collected and diluted, when appropriate, as described in Example VI. A 100 μl sample of plasma was assayed by ELISA for IL-10. Briefly, ELISA plates were coated with rat anti-mouse IL-10 monoclonal antibody (Pharmingen; San Diego Calif.). Samples or known concentrations of IL-10 were added to the coated plates and incubated for 2 hr at 37° C. Plates were washed and incubated with biotinylated rat anti-mouse IL-10 (R&D Systems; Minneapolis Minn.) for 1 hr at 37° C. Plates were washed and incubated with streptavidin-HRP 30 min at 37° C., and HRP activity was detected with hydrogen peroxide and TMB using standard immunoassay procedures.

[1] = competition with 125I-HP 467, HEK 293 cells expressing MCR-1

T2 sequence (P41968 whole entry): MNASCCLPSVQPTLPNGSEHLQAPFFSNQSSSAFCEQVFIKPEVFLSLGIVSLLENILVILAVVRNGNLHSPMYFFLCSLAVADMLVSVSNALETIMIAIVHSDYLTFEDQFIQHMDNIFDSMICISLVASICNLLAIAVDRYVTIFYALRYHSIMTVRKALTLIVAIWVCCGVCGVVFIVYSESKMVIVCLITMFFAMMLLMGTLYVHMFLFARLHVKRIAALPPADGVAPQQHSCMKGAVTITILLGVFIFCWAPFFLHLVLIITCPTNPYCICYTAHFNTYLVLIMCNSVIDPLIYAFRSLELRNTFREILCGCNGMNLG
T1 sequence (Q01726 whole entry): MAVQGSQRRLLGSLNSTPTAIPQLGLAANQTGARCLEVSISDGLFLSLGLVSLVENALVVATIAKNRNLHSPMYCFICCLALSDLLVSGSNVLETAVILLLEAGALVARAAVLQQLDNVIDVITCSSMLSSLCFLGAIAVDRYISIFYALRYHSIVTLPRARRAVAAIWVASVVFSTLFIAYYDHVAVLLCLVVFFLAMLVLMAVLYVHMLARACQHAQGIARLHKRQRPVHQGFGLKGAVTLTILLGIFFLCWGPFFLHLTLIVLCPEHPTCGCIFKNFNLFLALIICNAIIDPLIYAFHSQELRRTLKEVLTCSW

Structure (SMILES) | IC50 (MCR-1; TRG 2405 section, inhibition of binding of 125I-HP 467, HEK 293 cells expressing MCR-1) | % Disp. MC-1 10 μM (MCR-1; first of duplicate) | % Disp. MC-1 10 μM (MCR-1; second of duplicate) | IC50 (MCR-3) | % IL-10 Induction, IP 30 (IL-10) | % IL-10 Induction, IP 100 (IL-10) | % IL-10 Induction, IP 300 (IL-10) | % Disp. of 125I-HP 467 (first of duplicate) (MCR-1) | % Disp. of 125I-HP 467 (second of duplicate) (MCR-1) | effectiveness as MC receptor ligand (MCR-1) | increase of IL-10 (IL-10) | % IL-10 Induction, Oral 600 (IL-10) | specificity for at least one MC receptor over another MC receptor (MCR-1) | % IL-10 Induction, Oral 300 (IL-10) | IC50 (MCR-1; TRG 2406 and TRG 2407 libraries, inhibition of binding of 125I-HP 467) | IC50 (MCR-1; [1])
CNC(CN)CN1Cc2ccccc2C(CNC2CCCCC2)C1c1ccc(O)cc1 (centres unmarked) [TRG 2405-156] | 17 µM | 25.9% | 21.3% | 23.7 µM | 17 ± 23% | −5 ± 11% | 43 ± 34% | – | – | – | – | – | – | – | – | –
CNC(CN)CCCCN1Cc2ccccc2C(CNC2CCCCC2)C1c1ccc(Cl)cc1Cl (centres unmarked) [TRG 2405-190] | – | – | – | 2.24 µM | 25 ± 30% | 13 ± 14% | 109 ± 31 % | 79.4% | 81% | particularly effective MC receptor ligands | particularly effective at increasing IL-10 | – | – | – | – | –
CNC(CN)CCCCN1Cc2ccccc2C(CNC2CCCCC2)C1c1ccc(N(C)C)cc1 (centres unmarked) [TRG 2405-235] | – | – | – | 22.3 µM | −11 ± 13% | 45 ± 18% | 113 ± 15 % | 64.2% | 26.3% | – | – | – | – | – | – | –
CNC(CN)CCCCN1Cc2ccccc2C(CNC2CCCCC2)C1c1ccc(C(F)(F)F)cc1 (centres unmarked) [TRG 2405-238] | – | – | – | > 10 µM | −17 ± 7% | 151 ± 26 % | 118 ± 25 % | 76.8% | 72.8% | – | – | 65 ± 15 % | – | – | – | –
CCNc1ccc(C2C(CNC3CCCCC3)c3ccccc3CN2CCCCC(CN)NC)cc1 (centres unmarked) [TRG 2405-239] | – | – | – | 39.8 µM | 44 ± 35% | −29 ± 6% | 197 ± 34 % | 86.6% | 85.2% | particularly effective MC receptor ligands | – | 46 ± 14% | – | – | – | –
CNC(CN)CCCCN1Cc2ccccc2C(CNC2CCCCC2)C1c1ccc(-c2ccccc2)cc1 (centres unmarked) [TRG 2405-241] | – | – | – | 7.45 µM | 117 ± 21% | 310 ± 35 % | 406 ± 46 % | 89.5% | 88.8% | particularly effective MC receptor ligands | particularly effective at increasing IL-10 | 77 ± 37 % | about 10 fold | 9 ± 23% | – | –
CNC(CN)CCCCN1Cc2ccccc2C(CNC2CCCCC2)C1c1ccc(Br)cc1 (centres unmarked) [TRG 2405-242] | – | – | – | 0.55 µM | – | −9 ± 7% | – | 86% | 83.4% | – | – | – | – | – | – | –
CNC(CN)CCCCN1Cc2ccccc2C(CNC2CCCCC2)C1c1ccc(O)cc1 (centres unmarked) [TRG 2405-246] | – | – | – | > 10 µM | – | – | – | 26.5% | 20.7% | – | – | 30 ± 5 % | – | – | – | –
CNC(CN)CCCCN1Cc2ccccc2C(CNC2CCCCC2)C1c1ccc(Oc2ccccc2)cc1 (centres unmarked) [TRG 2405-252] | – | – | – | 6.49 µM | 2 ± 13% | – | 307 ± 43 % | 95.1% | 95.5% | particularly effective MC receptor ligands | particularly effective at increasing IL-10 | 69 ± 19 % | about 10 fold | – | – | –
CCCOc1ccc(C2C(CNC3CCCCC3)c3ccccc3CN2CCCCC(CN)NC)cc1 (centres unmarked) [TRG 2405-253] | – | – | – | 9.68 µM | 7 ± 21% | – | 325 ± 73 % | 93.9% | 92.2% | particularly effective MC receptor ligands | particularly effective at increasing IL-10 | – | about 10 fold | – | – | –
CNC(CN)CCCCN1Cc2ccccc2C(CNC2CCCCC2)C1c1ccc2cccc(O)c2n1 (centres unmarked) [TRG 2405-262] | – | – | – | > 10 µM | – | – | 191 ± 53 % | 66.1% | 66.8% | – | – | – | – | – | – | –
CNC(CN)CCCCN1Cc2ccccc2C(CN)C1c1ccc(Cl)cc1Cl (centres unmarked) [TRG 2407-39] | – | – | – | 0.28 µM | 34 ± 13% | – | 366 ± 12 % | – | – | – | – | – | – | – | 0.91 µM | –
CCCCNc1ccc(C2C(CNCc3ccccc3O)c3ccccc3CN2CCCCC(CN)NC)cc1 (centres unmarked) [TRG 2409-2] | – | – | – | – | −30 ± 11% | – | 157 ± 57 % | – | – | particularly effective MC receptor ligands | – | 82 ± 19 % | – | 39 ± 15% | – | 0.22 µM
CCCCNc1ccc(C2C(CNC3CCCCC3)c3ccccc3CN2CCCCC(CN)NC)cc1 (centres unmarked) [TRG 2409-14] | – | – | – | – | −27 ± 8% | – | 150 ± 50 % | – | – | particularly effective MC receptor ligands | – | 193 ± 50 % | – | 79 ± 29% | – | 0.1 µM
